The values that follow come from US8546343B2, “Aminoglycoside antibiotics targeting bacterial 16S ribosomal RNA” (Eidgenoessische Technische Hochschule Zurich, priority 2007, dated 2013).

What all share (assay type): cell-based, Mycobacterium smegmatis
Assay [1] deals with M. smegmatis ΔrrnB 1491C (16S rRNA position 1491 C, eukaryotic mitochondrial ribosome). Description: MIC, recombinant M. smegmatis with mutant ribosomes 1491C. To be noted: M. smegmatis ΔrrnB 1491C mutant ribosomes; 72 h at 37° C. From the text:
(§1) The strain used for introduction/selection of mutational alterations was a genetically modified derivative of Mycobacterium smegmatis carrying a single functional chromosomal rRNA operon (Sander et al. Mol. Microbiol. 1996, 22: 841-848). This strain, termed M. smegmatis rrn^−, allowed for the selection of mutational rRNA gene alterations using a plasmid carrying the rRNA gene with the respective mutational alteration.)
(§2) The rRNA gene carried on the plasmid encodes either the complete rRNA operon (Prammananan et al. Antimicrob. Agents Chemother. 1999, 43: 447-453) or a non-functional rRNA gene fragment of approximately 1.0 kb (Pfister et al. Antimicrob. Agents Chemother. 2003, 47: 1496-1502). PCR-mutagenesis in vitro was used to generate the mutagenized rRNA gene fragment. In the case of a partial rRNA gene fragment the mutagenized rRNA gene fragment was cloned into vectors pMV261 or pMV361 (Sander et al. Mol. Microbiol. 2002, 46: 1295-1304; Pfister et al. Antimicrob. Agents Chemother. 2003, 47: 1496-1502) to result in vectors carrying a partial rRNA gene fragment of approximately 1.0 kb with the mutational alteration introduced. In the case of plasmids carrying the complete rRNA operon the mutagenized rRNA gene fragment obtained by PCR was cloned into vectors pMV361 rRNA or pMV261 rRNA using appropriate restriction sites (Prammananan et al. Antimicrob. Agents Chemother. 1999, 43: 447-453). Vectors pMV361 rRNA and pMV261 rRNA carried a complete copy of the rRNA operon from M. smegmatis (Sander et al. Mol. Microbiol. 1997, 26: 469-480). Introduction of mutations into the plasmid encoded rRNA was confirmed by sequencing.
(§3) The single rRNA allelic derivative of M. smegmatis, i.e. M. smegmatis rrn, was used for transformation of the plasmids. The strain was made electro-competent and transformed according to standard techniques and as described previously (Sander et al. Mol. Microbiol. 1997, 26: 469-484). Following primary selection, the plasmid-encoded mutational rRNA gene alteration was transferred into the single chromosomal rRNA operon by means of RecA-mediated homologous recombination (Prammananan at al. Antimicrob. Agents Chemother. 1999, 43: 447-453). Introduction of the mutational rRNA gene alteration into the single functional chromosomal rRNA operon by gene conversion was confirmed by sequence determination.
(§4) Ribosomal drug susceptibility was studied by determining the minimal inhibitory concentrations, as described in detail in Pfister et al. 2003 and 2005 (see above).
(§5) The recombinants carrying the respective mutational alterations in the functional rRNA operon were colony-purified and subjected to determinations of minimal inhibitory concentrations (MIC) to determine ribosomal drug susceptibility. Cultures from single colonies were grown in LB medium supplemented with 0.05% Tween 80 and used for MIC tests in a microtiter plate format. Starting cultures contained 200 μl of bacterial cells at an optical density of 0.025 at 600 nm, and the respective drug was added in twofold series of dilution.
(§6) Key nucleotides which distinguish the prokaryotic from the eukaryotic decoding site are 16S rRNA positions 1408 (bacterial ribosome: A, eukaryotic cytosolic ribosomes: G) and 1491 (bacterial ribosomes: G, eukaryotic cytosolic ribosomes: A, eukaryotic mitochondrial ribosome: C).

Assay [2] concerns M. smegmatis ΔrrnB 1491A (16S rRNA position 1491 A, eukaryotic cytosolic ribosomes). The assay can be described thus: MIC, recombinant M. smegmatis with mutant ribosomes 1491A. Conditions: M. smegmatis ΔrrnB 1491A mutant ribosomes; 72 h at 37° C.
Source text: as §1, §2, §3, §4, §5, §6

The test system of assay [3] is M. smegmatis ΔrrnB 1408G (16S rRNA position 1408 G, eukaryotic cytosolic ribosomes). Description: MIC, recombinant M. smegmatis with mutant ribosomes 1408G. Conditions: M. smegmatis ΔrrnB 1408G mutant ribosomes; 72 h at 37° C.
Source text: as §1, §2, §3, §4, §5, §6

For assay [4], the system named is M. smegmatis ΔrrnB (bacterial ribosomes). Description: MIC, recombinant M. smegmatis with bacterial (wild-type) ribosomes. To be noted: 72 h at 37° C.
Source text: as §1, §2, §3, §4, §5, §6

As for `COc1ccc([C@@H]2OC[C@H]3O[C@H](O[C@H]4[C@H](O[C@@H]5O[C@H](CO)[C@@H](O[C@H]6O[C@@H](CN)[C@@H](O)[C@H](O)[C@H]6N)[C@H]5O)[C@@H](O)[C@H](N)C[C@@H]4N)[C@H](N)[C@@H](O)[C@@H]3O2)cc1` [Compound 5.2, 4′,6′-O-p-Methoxybenzylideneparomomycin], the “minimal inhibitory concentrations ΔrrnB 1491C” value in assay [1] is above 512 µg/mL. The “minimal inhibitory concentrations ΔrrnB 1491A” value in assay [2] was above 512 µg/mL. Further, the “minimal inhibitory concentrations ΔrrnB 1408G” value in assay [3] was above 512 µg/mL. In assay [4], the “minimal inhibitory concentrations ΔrrnB” value amounted to 4 µg/mL.
In the case of `CC(=O)O.CC(=O)O.CC(=O)O.CC(=O)O.COc1cccc(C2OCC3OC(OC4C(N)CC(N)C(O)C4OC4OC(CO)C(OC5OC(CN)C(O)C(O)C5N)C4O)C(N)C(O)C3O2)c1` (stereo not drawn) [Compound 5.3, 4′,6′-O-m-Methoxybenzylideneparomomycin tetraacetate], the “minimal inhibitory concentrations ΔrrnB 1491C” value in assay [1] was above 512 µg/mL. In assay [2], the “minimal inhibitory concentrations ΔrrnB 1491A” value was found to be 512 µg/mL. Besides, the “minimal inhibitory concentrations ΔrrnB 1408G” value in assay [3] fell in the range of 256 to 512 µg/mL. Further, the “minimal inhibitory concentrations ΔrrnB” value in assay [4] fell in the range of 4 to 8 µg/mL.
`COc1ccccc1[C@@H]1OC[C@H]2O[C@H](O[C@H]3[C@H](O[C@@H]4O[C@H](CO)[C@@H](O[C@H]5O[C@@H](CN)[C@@H](O)[C@H](O)[C@H]5N)[C@H]4O)[C@@H](O)[C@H](N)C[C@@H]3N)[C@H](N)[C@@H](O)[C@@H]2O1` [Compound 5.4, 4,6′-O-o-Methoxybenzylideneparomomycin]: in assay [1], the “minimal inhibitory concentrations ΔrrnB 1491C” value is above 512 µg/mL. Besides, the “minimal inhibitory concentrations ΔrrnB 1491A” value in assay [2] was above 512 µg/mL. The “minimal inhibitory concentrations ΔrrnB 1408G” value in assay [3] was above 512 µg/mL. In addition, the “minimal inhibitory concentrations ΔrrnB” value in assay [4] was in the range of 8 to 16 µg/mL.
For `COc1ccc(OC)c(C2OC[C@H]3O[C@H](O[C@H]4[C@H](O[C@@H]5O[C@H](CO)[C@@H](O[C@H]6O[C@@H](CN)[C@@H](O)[C@H](O)[C@H]6N)[C@H]5O)[C@@H](O)[C@H](N)C[C@@H]4N)[C@H](N)[C@@H](O)[C@@H]3O2)c1` (stereo partly drawn) [Compound 5.5, 4′,6′-O-2,5-Dimethoxybenzylideneparomomycin], the “minimal inhibitory concentrations ΔrrnB 1491C” value in assay [1] is above 512 µg/mL. Further, in assay [2], the “minimal inhibitory concentrations ΔrrnB 1491A” value was above 512 µg/mL. The “minimal inhibitory concentrations ΔrrnB 1408G” value in assay [3] was “≧512 μg/ml”. In assay [4], the “minimal inhibitory concentrations ΔrrnB” value was 4 to 8 µg/mL.
`NC[C@@H]1O[C@H](O[C@H]2[C@@H](O)[C@H](O[C@@H]3[C@@H](O)[C@H](N)C[C@H](N)[C@H]3O[C@H]3O[C@@H]4CO[C@@H](c5ccc([N+](=O)[O-])cc5)O[C@H]4[C@H](O)[C@H]3N)O[C@@H]2CO)[C@H](N)[C@@H](O)[C@@H]1O` [Compound 5.6, 4′,6′-O-p-Nitrobenzylideneparomomycin]: the “minimal inhibitory concentrations ΔrrnB 1491C” value in assay [1] was above 512 µg/mL. In assay [2], the “minimal inhibitory concentrations ΔrrnB 1491A” value is above 512 µg/mL. In assay [3], the “minimal inhibitory concentrations ΔrrnB 1408G” value is 512 µg/mL. Further, in assay [4], the “minimal inhibitory concentrations ΔrrnB” value stood at 4 µg/mL.
Consider `CC(=O)O.CC(=O)O.CC(=O)O.NC[C@@H]1O[C@H](O[C@H]2[C@@H](O)[C@H](O[C@@H]3[C@@H](O)[C@H](N)C[C@H](N)[C@H]3O[C@H]3O[C@@H]4COC(c5cccc([N+](=O)[O-])c5)O[C@H]4[C@H](O)[C@H]3N)O[C@@H]2CO)[C@H](N)[C@@H](O)[C@@H]1O` (stereo partly drawn) [Compound 5.7, 4,6′-O-m-Nitrobenzylideneparomomycin triacetate], for which, in assay [1], the “minimal inhibitory concentrations ΔrrnB 1491C” value is above 512 µg/mL. Further, the “minimal inhibitory concentrations ΔrrnB 1491A” value in assay [2] was found to be 256 µg/mL. Further, in assay [3], the “minimal inhibitory concentrations ΔrrnB 1408G” value was in the range of 256 to 512 µg/mL. For the same compound, in assay [4], the “minimal inhibitory concentrations ΔrrnB” value fell in the range of 2 to 4 µg/mL.
As to `NC[C@@H]1O[C@H](O[C@H]2[C@@H](O)[C@H](O[C@@H]3[C@@H](O)[C@H](N)C[C@H](N)[C@H]3O[C@H]3O[C@@H]4CO[C@@H](c5cc(Cl)cc(Cl)c5)O[C@H]4[C@H](O)[C@H]3N)O[C@@H]2CO)[C@H](N)[C@@H](O)[C@@H]1O` [Compound 5.9, 4,6′-O-3,5-Dichlorobenzylideneparomomycin], the “minimal inhibitory concentrations ΔrrnB 1491C” value in assay [1] turned out to be 128 µg/mL. The “minimal inhibitory concentrations ΔrrnB 1491A” value in assay [2] lay within 128 to 256 µg/mL. Moreover, in assay [3], the “minimal inhibitory concentrations ΔrrnB 1408G” value was in the range of 128 to 256 µg/mL. In addition, the “minimal inhibitory concentrations ΔrrnB” value in assay [4] worked out at 4 µg/mL.
For `N#Cc1ccc([C@@H]2OC[C@H]3O[C@H](O[C@H]4[C@H](O[C@@H]5O[C@H](CO)[C@@H](O[C@H]6O[C@@H](CN)[C@@H](O)[C@H](O)[C@H]6N)[C@H]5O)[C@@H](O)[C@H](N)C[C@@H]4N)[C@H](N)[C@@H](O)[C@@H]3O2)cc1` [Compound 5.10, 4,6′-O-p-Cyanobenzylideneparomomycin], the “minimal inhibitory concentrations ΔrrnB 1491C” value in assay [1] was above 512 µg/mL. Moreover, the “minimal inhibitory concentrations ΔrrnB 1491A” value in assay [2] is above 512 µg/mL. For the same compound, in assay [3], the “minimal inhibitory concentrations ΔrrnB 1408G” value is above 512 µg/mL. Besides, the “minimal inhibitory concentrations ΔrrnB” value in assay [4] was 16 to 32 µg/mL.
In the case of `NC[C@@H]1O[C@H](O[C@H]2[C@@H](O)[C@H](O[C@@H]3[C@@H](O)[C@H](N)C[C@H](N)[C@H]3O[C@H]3O[C@@H]4CO[C@@H](c5ccc(-c6ccccc6)cc5)O[C@H]4[C@H](O)[C@H]3N)O[C@@H]2CO)[C@H](N)[C@@H](O)[C@@H]1O` [Compound 5.11, 4′,6′-O-p-Phenylbenzylideneparomomycin], the “minimal inhibitory concentrations ΔrrnB 1491C” value in assay [1] amounted to 64 µg/mL. Further, in assay [2], the “minimal inhibitory concentrations ΔrrnB 1491A” value is 64 to 128 µg/mL. Besides, the “minimal inhibitory concentrations ΔrrnB 1408G” value in assay [3] stood at 128 µg/mL. In addition, the “minimal inhibitory concentrations ΔrrnB” value in assay [4] stood at 64 µg/mL.
Regarding `NC[C@@H]1O[C@H](O[C@H]2[C@@H](O)[C@H](O[C@@H]3[C@@H](O)[C@H](N)C[C@H](N)[C@H]3O[C@H]3O[C@@H]4CO[C@@H](c5ccc(F)cc5)O[C@H]4[C@H](O)[C@H]3N)O[C@@H]2CO)[C@H](N)[C@@H](O)[C@@H]1O` [Compound 5.12, 4,6′-O-p-Fluorobenzylideneparomomycin], in assay [1], the “minimal inhibitory concentrations ΔrrnB 1491C” value was above 512 µg/mL. The “minimal inhibitory concentrations ΔrrnB 1491A” value in assay [2] is above 512 µg/mL. For the same compound, the “minimal inhibitory concentrations ΔrrnB 1408G” value in assay [3] was above 512 µg/mL. For the same compound, in assay [4], the “minimal inhibitory concentrations ΔrrnB” value was in the range of 2 to 4 µg/mL.
For `COc1cc(OC)cc([C@@H]2OC[C@H]3O[C@H](O[C@H]4[C@H](O[C@@H]5O[C@H](CO)[C@@H](O[C@H]6O[C@@H](CN)[C@@H](O)[C@H](O)[C@H]6N)[C@H]5O)[C@@H](O)[C@H](N)C[C@@H]4N)[C@H](N)[C@@H](O)[C@@H]3O2)c1` [Compound 5.13, 4′,6′-O-3,5-Dimethoxybenzylideneparomomycin], in assay [1], the “minimal inhibitory concentrations ΔrrnB 1491C” value is above 512 µg/mL. In addition, in assay [2], the “minimal inhibitory concentrations ΔrrnB 1491A” value was above 512 µg/mL. The “minimal inhibitory concentrations ΔrrnB 1408G” value in assay [3] was above 512 µg/mL. Besides, the “minimal inhibitory concentrations ΔrrnB” value in assay [4] turned out to be 32 µg/mL.
`COc1cc([C@@H]2OC[C@H]3O[C@H](O[C@H]4[C@H](O[C@@H]5O[C@H](CO)[C@@H](O[C@H]6O[C@@H](CN)[C@@H](O)[C@H](O)[C@H]6N)[C@H]5O)[C@@H](O)[C@H](N)C[C@@H]4N)[C@H](N)[C@@H](O)[C@@H]3O2)cc(OC)c1OC` [Compound 5.14, 4′,6′-O-3,4,5-Trimethoxybenzylideneparomomycin]: the “minimal inhibitory concentrations ΔrrnB 1491C” value in assay [1] was above 512 µg/mL. For the same compound, in assay [2], the “minimal inhibitory concentrations ΔrrnB 1491A” value was above 512 µg/mL. The “minimal inhibitory concentrations ΔrrnB 1408G” value in assay [3] is above 512 µg/mL. The “minimal inhibitory concentrations ΔrrnB” value in assay [4] fell in the range of 32 to 64 µg/mL.
